In paper PMC7033111, “Rational design of novel benzisoxazole derivatives with acetylcholinesterase inhibitory and serotoninergic 5-HT4 receptors activities for the treatment of Alzheimer’s disease” (Scientific Reports, 2020):
“And” between values parts separate entries of the source, which are not always exact repeats. Identical values can stand only once. Like-named read-outs stand apart in the source and are kept apart here.

Tests used:
[1] = target: T1, hAChE (AChE from human erythrocytes) (Homo sapiens, UniProt P22303); assay: hAChE inhibition, spectrometric Ellman method; assay type: biochemical; details: for inhibition at 1 µM: 10^−6 M compound; for IC50: Ellman method, n = 2; for inhibition of the enzyme (AChE), in words: statement in discussion
T1 construct: AChE from human erythrocytes; purchased Sigma Aldrich; host or cells: human erythrocytes (tissue-derived enzyme)
T1 sequence (P22303 other isoform, or with tags, fused parts or gaps): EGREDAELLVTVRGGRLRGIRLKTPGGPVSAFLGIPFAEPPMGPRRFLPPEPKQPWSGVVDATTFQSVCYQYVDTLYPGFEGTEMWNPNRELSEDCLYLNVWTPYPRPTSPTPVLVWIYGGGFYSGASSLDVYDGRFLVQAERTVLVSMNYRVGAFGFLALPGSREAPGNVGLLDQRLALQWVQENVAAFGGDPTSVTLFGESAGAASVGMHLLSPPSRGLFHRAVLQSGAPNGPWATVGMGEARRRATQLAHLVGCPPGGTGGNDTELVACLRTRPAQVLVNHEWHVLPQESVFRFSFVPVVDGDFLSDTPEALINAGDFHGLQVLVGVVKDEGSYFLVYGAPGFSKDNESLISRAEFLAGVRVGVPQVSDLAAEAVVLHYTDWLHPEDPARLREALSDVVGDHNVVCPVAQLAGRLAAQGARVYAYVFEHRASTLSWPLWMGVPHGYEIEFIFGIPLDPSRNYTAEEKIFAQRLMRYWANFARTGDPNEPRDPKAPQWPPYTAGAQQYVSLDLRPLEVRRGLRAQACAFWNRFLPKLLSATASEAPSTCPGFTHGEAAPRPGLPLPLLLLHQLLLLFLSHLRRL
Method: Inhibitory capacity of compounds on AChE biological activity was evaluated through the use of the spectrometric method of Ellman[39]. Acetylthiocholine and 5,5-dithiobis-(2-nitrobenzoic) acid (DTNB) were purchased from Sigma Aldrich. AChE from human erythrocytes (buffered aqueous solution, ≥500 units/mg protein (BCA), Sigma Aldrich) was diluted in 20 mM HEPES buffer pH 8, 0.1% Triton X-100 such as to have enzyme solution with 0.25 unit/mL enzyme activity. In the procedure, 100 μL of 0.3 mM DTNB dissolved in phosphate buffer pH 7.4 were added into the 96 wells plate followed by 50 μL of test compound solution and 50 μL of enzyme ([…]). After 5 min of preincubation at 25 °C, the reaction was then initiated by the injection of 50 μL of 10 mM acetylthiocholine iodide solution. The hydrolysis of acetylthiocholine was monitored by the formation of yellow 5-thio-2-nitrobenzoate anion as the result of the reaction of DTNB with thiocholine, released by the enzymatic hydrolysis of acetylthiocholine, at a wavelength of 412 nm using a 96-well microplate plate reader (TECAN Infinite M200, Lyon, France). Test compounds were dissolved in analytical grade DMSO. Donepezil was used as a reference standard. The rate of absorbance increase at 412 nm was followed every minute for 10 min. Assays were performed with a blank containing all components except acetylthiocholine, in order to account for non-enzymatic reaction. The reaction slopes were compared and the percent inhibition due to the presence of test compounds was calculated by the following expression: 100 − (vi/v0 × 100) where vi is the rate calculated in the presence of inhibitor and v0 is the enzyme activity.
For the compounds with significant inhibition (≥50%), IC50 values were determined graphically by plotting the % inhibition versus the logarithm of six inhibitor concentrations in the assay solution using the Origin software.

[2] = target: T2, human 5-HT4R (5-HT4(b) receptor membranes) (Homo sapiens, UniProt Q13639); assay: h5-HT4R competition binding with [3H]-GR113808; details: for inhibition: 0.2 nM [3H]-GR113808
T2 construct: purchased Millipore HTS110M
T2 sequence (Q13639 whole entry): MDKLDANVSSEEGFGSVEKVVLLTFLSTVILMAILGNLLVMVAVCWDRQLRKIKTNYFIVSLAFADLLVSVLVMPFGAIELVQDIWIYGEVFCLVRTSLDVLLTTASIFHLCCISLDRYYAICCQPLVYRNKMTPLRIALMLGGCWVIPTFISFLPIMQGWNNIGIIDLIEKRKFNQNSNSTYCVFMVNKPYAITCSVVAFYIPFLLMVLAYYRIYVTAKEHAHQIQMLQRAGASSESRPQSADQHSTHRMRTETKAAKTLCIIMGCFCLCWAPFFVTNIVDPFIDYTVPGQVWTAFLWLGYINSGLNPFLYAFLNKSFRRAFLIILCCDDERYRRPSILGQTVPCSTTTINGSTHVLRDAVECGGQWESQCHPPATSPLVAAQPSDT
Method: The competition studies used membrane preparations made from proprietary stable recombinant cell lines expressing the 5-HT4(b) receptor to ensure high-level of GPCR surface expression (HTS110M, Millipore). Membranes (2.5 µg protein) were incubated in duplicate at 25 °C for 60 min in the absence or the presence of 10^–6 or 10^–8M of each drug and 0.2 nM [^3H]-GR 113808 (VT 240, ViTrax) in 25 mM Tris buffer (pH 7.4, 25 °C). At the end of the incubation, homogenates were filtered through Whatman GF/C filters (Alpha Biotech) pre-soaked with 0.5% polyethylenimine using a Brandel cell harvester. Filters were subsequently washed three times with 4 mL of ice-cold 25 mM Tris buffer (pH 7.4, 4 °C). Non-specific binding was evaluated in parallel in the presence of 30 μM serotonin.
For some of these compounds, affinity constants were calculated from five-point inhibition curves using the EBDA-Ligand software and expressed as Ki ± SD[41].

[3] = target: T3, HA-tagged human 5-HT4 receptor (Homo sapiens, UniProt Q13639); assay: cAMP production, agonist mode, transfected COS-7 cells; assay type: cell-based; details: for Log(EC50): given as Log(EC50); for 5-HT4 pharmacological profile (agonism assay): cAMP production, COS-7 cells
T3 construct: HA; expressed in transfected cells; host or cells: COS-7 cells (ATCC CRL-1651), transient transfection
T3 sequence (Q13639 whole entry): as above
Text: (§1) Figure 5 Determination of the 5-HT4 pharmacological profiles for compounds 16, 32a and 33 by quantification of cAMP production. (A) Assay to determine the agonism activity (with serotonin and the partial agonist RS-67333 as references). (B) Assay to determine the antagonism activity (with the antagonist GR113808 as reference). Data presented are the mean of three independent experiments performed in duplicate.
(§2) COS-7 cells were purchased from ATCC (ATCC CRL-1651; LGC […], Molsheim, France). T were grown in Dulbecco’s modified Eagle medium (DMEM) supplemented with 10% dialyzed fetal calf serum (dFCS) and antibiotics. Cells were transiently transfected with plasmid encoding HA-tagged human 5-HT4 receptor, then seeded in 96-well plates (35,000 cells/well). 24 hrs after transfection, cells were washed once with 200 µl of HBS (20 mM HEPES; 150 mM NaCl; 4.2 mM KCl; 0.9 mM CaCl2; 0.5 mM MgCl2; 0.1% glucose; 0.1% BSA) and, after HBS removal, exposed to the indicated concentrations of 5-HT4R ligands in the presence of 0.1 mM of the phosphodiesterase inhibitor RO-20-1724, at 37 °C in 100 µl of HBS. After 10 min, cells were then lysed by addition of the same volume of Triton-X100 (0.1%) during 30 min at 37 °C. The competition assay in antagonist mode was performed as follows: after one wash in 200 µl of HBS, cells were exposed to 5-HT4R ligands at twice the indicated concentration, at 37 °C in 50 µl of HBS. After 7 min, serotonin (final concentration of 5.10^−7M) was added in 50 µl of HBS in the presence of the phosphodiesterase inhibitor RO-20-1724 (final concentration of 0.1 mM). After 10 min, cells were then lysed by addition of the same volume of Triton-X100 (0.1%) during 30 min at 37 °C. Quantification of cAMP production was performed by HTRF by using the cAMP Dynamic kit (Cisbio Bioassays) according to the manufacturer’s instructions

[4] = target: T3, HA-tagged human 5-HT4 receptor; assay: cAMP production, competition assay in antagonist mode vs serotonin, transfected COS-7 cells; assay type: cell-based; details: for 5-HT4 pharmacological profile (antagonism assay): cAMP production
Text: as §1, §2

5-HT4dR = details: cited from earlier work
[5] = design: method as in PMID 8064800; details: cited from earlier work
[6] = design: method as in PMID 8064800; details: mouse; cited from earlier work
AChE = details: read-out: AChE IC50; cited from earlier work
BuChE = test system: BuChE; design: method as in PMID 8064800; details: cited from earlier work
[7] = 10^−6 M compound, read-out: h5-HT4R % inhibition at 10^−6 M (converted)
[8] = 10^−8 M compound, read-out: h5-HT4R % inhibition at 10^−8 M (converted)
[9] = agonist mode, Moy. (mean of HP5-HP7), unit not given
[10] = agonist mode, individual experiments HP5, HP6, HP7
[11] = agonist mode, individual experiments HP5, HP6, HP7, unit not given
[12] = IC50 (5-HT4R antagonist, cAMP production), COS-7 cells, serotonin 5.10^−7 M, mean of three experiments
[13] = IC50, antagonist mode, individual experiments HP8, HP10, HP11, unit inferred
[14] = Log(IC50), antagonist mode, Moy., printed as Log(IC50), negative
[15] = antagonist mode, individual experiments HP8, HP10, HP11

SMILES | inhibition at 1 µM [1] [%] | Ki [2] [nM] | inhibition [2, 7] [%] | inhibition [2, 8] [%] | IC50 [1] [nM] | other results
c1ccc2c(OCC3CCN(CC4CCCCC4)CC3)noc2c1 [Compound 11, 3-[[1-(cyclohexylmethyl)-4-piperidyl]methoxy]-1,2-benzoxazole] | 24 | 9.6 ± 1.6 | 100 | 67 |  | 
c1ccc(CN2CCC(COc3noc4ccccc34)CC2)cc1 [Compound 12] |  | 42.4 ± 12.2 | 99 | 29 |  | 
CC(C)CN1CCC(COc2noc3ccccc23)CC1 [Compound 13] | 8 | 20.8 ± 12.5 | 100 | 59 |  | 
COc1cccc2onc(OCC3CCN(CC4CCCCC4)CC3)c12 [Compound 14] | 82 | 2.7 ± 0.4 | 100 | 99 | 441 ± 63 | 
COc1cccc2onc(OCC3CCN(Cc4ccccc4)CC3)c12 [Compound 15] | 82 | 3 ± 0.4 | 100 | 94 | 939 ± 40 | 
COc1cccc2onc(OCC3CCN(CC(C)C)CC3)c12 [Compound 16] | 23 | 4.1 ± 0.4 | 100 | 100 |  | inhibition of the enzyme (AChE), in words [1]: did not show any inhibition; Top AMPc ([3]; agonist mode, Moy.): 4%; EC50 [3, 9]: ns; Log(EC50) ([3]; agonist mode, Moy., negative): ns; Top AMPc [3, 10]: 5.63% and 0.00% and 6.91%; Log(EC50) [3, 10]: ns; EC50 [3, 11]: ns; 5-HT4 pharmacological profile (agonism assay) [3]: not agonist; IC50 [4, 12]: 5.6 ± 2.2 nM; IC50 [4, 13]: 5.07 nM and 2.01 nM and 9.78 nM; IC50 [4, 14]: 5.01 nM; Bott. AMPc ([4]; antagonist mode, Moy.): 31%; Bott. AMPc [4, 15]: 39.69% and 29.62% and 24.98%; 5-HT4 pharmacological profile (antagonism assay) ([4]; COS-7 cells): highly potent antagonist
c1ccc2c(CCC3CCN(CC4CCCCC4)CC3)noc2c1 [Compound 21] | 84 | 139 ± 9 | 89 | 4 | 240 ± 59 | 
c1ccc(CN2CCC(CCc3noc4ccccc34)CC2)cc1 [Compound 22] |  | 263 ± 11 | 78 | 8 |  | 
CC(C)CN1CCC(CCc2noc3ccccc23)CC1 [Compound 23] | 11 |  | 87 | 8 |  | 
COc1cccc2onc(CCC3CCN(CC4CCCCC4)CC3)c12 [Compound 32a, 3-[2-[1-(cyclohexylmethyl)-4-piperidyl]ethyl]-4-methoxy-1,2-benzoxazole] | 94 | 59 ± 8.5 | 100 | 13 | 63.5 ± 19.2 | EC50 ([3]; EC50, agonist mode, Moy. (mean of HP5-HP7), unit inferred): 11300 nM; EC50 ([3]; EC50, agonist mode, individual experiments HP5, HP6, HP7, unit inferred): 13600 nM and 20300 nM; Top AMPc ([3]; agonist mode, Moy.): 22%; Top AMPc [3, 10]: 29.36% and 12.83% and 24.95%; 5-HT4 pharmacological profile (agonism assay) [3]: not agonist; IC50 [4, 12]: 97.2 ± 17.2 nM; IC50 [4, 13]: 129 nM and 69.5 nM and 93.6 nM; IC50 [4, 14]: 100 nM; Bott. AMPc ([4]; antagonist mode, Moy.): 33%; Bott. AMPc [4, 15]: 38.80% and 27.69% and 32.50%; 5-HT4 pharmacological profile (antagonism assay) ([4]; COS-7 cells): antagonists
CCOc1cccc2onc(CCC3CCN(CC4CCCCC4)CC3)c12 [Compound 32b] | 87 | 80.5 ± 9.9 | 100 | 16 | 200 ± 32 | 
CC(C)COc1cccc2onc(CCC3CCN(CC4CCCCC4)CC3)c12 [Compound 32c] | 42 | 219 ± 65 | 100 | 4 |  | inhibition of the enzyme (AChE), in words [1]: without AChE inhibition
c1cc(OC2CCCC2)c2c(CCC3CCN(CC4CCCCC4)CC3)noc2c1 [Compound 32d] | 52 | 616 ± 67 | 100 | 0 | 1000 ± 84 | 
c1ccc(COc2cccc3onc(CCC4CCN(CC5CCCCC5)CC4)c23)cc1 [Compound 32e] | 10 | 2920 ± 781 | 96 | 0 |  | 
Oc1cccc2onc(CCC3CCN(CC4CCCCC4)CC3)c12 [Compound 33] | 87 | 37 ± 10.5 | 100 | 29 | 97.3 ± 1.5 | Top AMPc ([3]; agonist mode, Moy.): -3%; EC50 [3, 9]: ns; Log(EC50) ([3]; agonist mode, Moy., negative): ns; Top AMPc [3, 10]: -15.21% and 4.96% and 0.00%; Log(EC50) [3, 10]: ns; EC50 [3, 11]: ns; 5-HT4 pharmacological profile (agonism assay) [3]: not agonist; IC50 [4, 12]: 883 ± 598 nM; Bott. AMPc ([4]; antagonist mode, Moy.): 44%; Bott. AMPc [4, 15]: 50.44% and 46.43% and 34.27%; 5-HT4 pharmacological profile (antagonism assay) ([4]; COS-7 cells): antagonists
OC1(CN2CCC(COc3noc4cccc(O[C@@H]5CCOC5)c34)CC2)CCOCC1 [[A]] |  |  |  |  |  | 5-HT4dR Emax (5-HT4dR): 24%; EC50 (5-HT4dR): 0.2 nM
CC(=O)Nc1ccc2c(CCC3CCN(Cc4ccccc4)CC3)noc2c1 [[B]] |  |  |  |  |  | elevation of ACh in mouse [5]: dose-dependent elevation of ACh; effect on amnesia, passive avoidance model [6]: reversion of amnesia; IC50 (AChE): 2.8 nM; IC50 (BuChE): 9000 nM; ratio BuAChE/AChE (BuChE; selectivity ratio): 3200
